Test results as given in US6355617B1, “Peptide derivatives” (Syngenta Limited, priority 1996, dated 2002).

Legend:
BALB/C mice = assay: Test C: Peptide stimulated DTH (delayed type hypersensitivity) in BALB/C mice; type: in vivo; details: ovalbumin DTH footpad swelling, 3-day osmotic mini-pumps
Experimental: Test C: Peptide stimulated DTH (delayed type hypersensitivity) in BALB/C mice. […] Balb/c female mice (18-20 g), 5 per group, were immunised sub-cutaneously on the flank with 0.1 ml of an emulsion of ovalbumin (Sigma) (2 mg/ml in saline) mixed 1:1 (v/v) with complete Freunds adjurant (Sigma). Seven days later footpad thickness was determined using a dual caliper micrometer followed by a challenge in one hind footpad with a 30 μl sub-plantar injection of 1% heat-aggregated ovalbumin protein in saline. Twenty-four hours after antigen challenge, footpads were measured and the DTH response calculated as the percentage increase in footpad thickness in the injected footpad compared to contralateral control. Inhibitors were adminstered by 3-day osmotic mini-pumps (Alzet) implanted 24 hours prior to antigen challenge at doses ranging from 10 mg/kg/day to 0.1 μg/kg/day. The degree of inhibition was calculated by substracting the value for swelling of inhibitor treated footpads from that of the vehicle dosed controls, dividing by the control value and multiplying by 100%.

HLA-DR4Dw4 = molecular target: T1, HLA-DR4Dw4 (Homo sapiens, UniProt P01903+P01911, A100K/A169T/F76Y/I96L/K127E/L162R/M171V/N62H/P40V/Q125Y/R42H/S133A/S149N/S66Y/V115G/V209L/W38E); assay: Test A: Purified HLA-DR peptide in vitro binding assay; details: competition with biotin-FHA307-320, 48 hours incubation
T1 construct: a cDNA encoding the β chain is cloned into the transfer vector pAcUW1; made in house; host or cells: Sf21 insect cells, double-recombinant baculovirus
Experimental: Test A: Purified HLA-DR peptide in vitro binding assay. […]. At the end of the incubation period 100 μl of the incubate is transferred to Enzyme Linked ImmunoSorbant Assay (ELISA) plates (Nunc) previously coated with an anti-MHC antibody (L243-American Type Culture Collection (ATCC) HB55 as described in Lampson and Levy (1980) J. Immunol. 125, 293-299) at a concentration of 10 μg/ml for 1 hour at room temperature and blocked thereafter for 1 hour with 1% bovine serum albumin (BSA) in PBS and 0.05% Tween 20. […] The reaction is stopped by adding 2M sulphuric acid (10 μl per well) and the absorbance read at 450 nm to quantify the amount of peptide bound. The inhibitory activity-of peptides is obtained by plotting absorbance against concentration. […]
To create the double-recombinant baculovirus, a cDNA encoding the β chain is cloned into the transfer vector pAcUW1 [Weyer, U; Knight, S & Possee, R D (1990) J. Gen. […] Double-recombinant viruses are detected by spotting insect cells, infected with randomly picked viruses from the transfection, onto membranes and reacting them with a monoclonal antibody e.g. L243 which specifically recognises the HLA-DR heterodimer. Binding of the antibody to Sf21 insect cells is detected using standard flow cytometry techniques, readily available in the literature. […]

Phv-Arg-Ala-IIb-Thr-Ala-Ala-Ala-Papa-NH2 [Example 1]
dose at which active in Test C (BALB/C mice): < 0.1 mg/kg/day
concentration showing significant binding to HLA-DR4Dw4 in Test A (HLA-DR4Dw4): ≤ 0.1 µM
